These results are taken from US7189754B2, “Pyrrolidine ester derivatives with oxytocin modulating activity” (Applied Research Systems ARS Holding NV, priority 2001, dated 2007).

In assay [1] the target is T1, ratOT-R (Rattus norvegicus, UniProt P70536).
T1 construct: expressed in transfected cells; host or cells: HEK/EBNA
T1 sequence (P70536 1-388): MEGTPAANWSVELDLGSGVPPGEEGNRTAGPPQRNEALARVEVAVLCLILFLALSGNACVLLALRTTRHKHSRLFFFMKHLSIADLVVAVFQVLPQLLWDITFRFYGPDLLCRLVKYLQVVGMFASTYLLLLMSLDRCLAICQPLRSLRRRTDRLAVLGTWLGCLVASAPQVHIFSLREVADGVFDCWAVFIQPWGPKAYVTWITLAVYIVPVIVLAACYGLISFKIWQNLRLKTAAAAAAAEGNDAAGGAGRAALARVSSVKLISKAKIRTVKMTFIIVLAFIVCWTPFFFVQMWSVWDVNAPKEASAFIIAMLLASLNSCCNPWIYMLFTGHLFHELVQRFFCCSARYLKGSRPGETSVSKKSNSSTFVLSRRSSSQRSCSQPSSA
The experiment in a line: Functional assay No. 2: inhibition of IP3-synthesis in HEK/EBNA-OTR cells. It counts as cell-based. The settings on record: oxytocin 10 nM, [3H]-inositol. The text has this: c) Functional Assay No. 2: Inhibition of IP3 (Inositol Tri-Phosphate)-Synthesis in HEK/EBNA-OTR cells
The interaction of OT on the OT-receptor leads to the IP3 synthesis, IP3 being a second messenger for the Ca^2+ release from sarcoplasmic reticulum, involved in the uterine contraction triggering process (see Mitchell, B. F. and Schmid, B. J. Soc. Gynecol. Invest. 2001, 8,122–33).
This assay can be used to show the inhibition of the OT/OT-R mediated IP3 synthesis by using test compounds of formula (I).
Stimulation of the cells: HEK/EBNA OTR (rat or human) cells are plated out-into costar 12-well plates, and equilibrated for 15–24 h with 4 μCi/ml radiolabelled [^3H]-Inositol with 1% FCS (0.5 ml/well) and without inositol supplement. The medium containing the label is aspirated. […]
The amount of the radiolabelled IP3 may be determined through the ensuing work-up. […]
Elution of total IP's: Elution is achieved using 3 ml 1M ammonium formate/0.1M formic acid. […] The amount of [^3H]-IP3 is determined by a scintillating counter.
The ability of compounds of formula(I) to effectively antagonize oxytocin-induced IP3synthesis mediated by the oxytocin receptor, can be assessed using the above described in vitro biological assay.

Assay [2] deals with T2, human Oxytocin (hOT) receptor (Homo sapiens, UniProt P30559).
T2 construct: expressed in transfected cells; host or cells: HEK293EBNA
T2 sequence (P30559 1-389): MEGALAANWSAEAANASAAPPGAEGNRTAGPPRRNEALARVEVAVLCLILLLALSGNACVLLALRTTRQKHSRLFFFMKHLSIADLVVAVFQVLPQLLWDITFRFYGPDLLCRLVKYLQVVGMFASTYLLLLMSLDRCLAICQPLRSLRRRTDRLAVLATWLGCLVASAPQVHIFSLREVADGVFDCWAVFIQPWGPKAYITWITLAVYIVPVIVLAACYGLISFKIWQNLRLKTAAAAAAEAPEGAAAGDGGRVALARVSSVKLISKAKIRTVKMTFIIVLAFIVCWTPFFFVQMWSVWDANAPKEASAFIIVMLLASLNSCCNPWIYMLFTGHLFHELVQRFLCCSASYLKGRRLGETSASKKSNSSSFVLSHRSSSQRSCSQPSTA
Kind of assay: In vitro competition binding assay on hOT receptor with scintillation proximity assay ([125I]-OVTA). The following applies: HEK293EBNA membranes expressing hOT receptor, 0.2 nM [125I]-OVTA, SPA; read-out: Binding affinity human OT-R IC50. Here is the method:
a) In Vitro Competition Binding Assay on hOT Receptor with Scintillation Proximity Assay (see Cook, N. D. et al. Pharmaceutical Manufacturing International 1992; p.49–53)
This assay allows to determine the affinity of the test compounds for the human Oxytocin (hOT) receptor. Membranes from HEK293EBNA (cells expressing the hOT receptor) were suspended in buffer containing 50 mM Tris-HCl, pH 7.4, 5 mM MgCl2 and 0.1% BSA (w/v). The membranes (2–4 μg) were mixed with 0.1 mg SPA bead coated with wheat-germ aglutinin (WGA-PVT-Polyethylene Imine beads from Amersham) and 0.2 nM of the radiolabelled [^125I]-OVTA (OVTA being Ornithin Vasoactive, an analogue of OT for competitive binding experiments). Non-specific binding was determined in the presence of 1 μM Oxytocin. The total assay volume was 100 μl. The plates (Corning® NBS plate) were incubated at room temperature for 30 min and counted on a Mibrobeta® plate scintillation counter. Competitive binding was performed in presence of compounds of formula (I) at the following concentrations: 30 μM, 10 μM, 1 μM, 300 nM, 100 nM, 10 nM, 1 nM, 100 pM, 10 pM. The competitive binding data were analysed using the iterative, nonlinear, curve-fitting program, “Prism” (GraphPad Software, Inc).
The ability of the pyrrolidine derivatives of formula (I) to inhibit the binding of ^125I-OVTA to the OT-receptor was assessed using the above described in vitro biological assay. Representative values for some example compounds are given in Table 1, where the binding affinity of the compounds is expressed by the IC50 (μM) which is the concentration upon which 50% inhibition of OT-R is achieved. From these values, it can be derived that said test compounds according to formula (I) do show a significant binding to the oxytocin receptor.
(In general: Scintillation proximity formats need no separation of bound from free tracer.)

For orientation: IC50 means the concentration that inhibits the measured activity by half. On to `CO/N=C1\C[C@@H](C(=O)OC)N(C(=O)c2ccc(-c3ccccc3C)cc2)C1` [Methyl (2S,4E)-4-(methoxyimino)-1-[(2′-methyl[1,1′-biphenyl]-4-yl)carbonyl]-2-pyrrolidinecarboxylate], for which the figures for the IC50 in assay [1] and in assay [2] were 77 nM and 36 nM, respectively.

In the case of `CO/N=C1/C[C@@H](C(=O)OC)N(C(=O)c2ccc(-c3ccccc3C)cc2)C1` [Methyl (2S,4Z)-4-(methoxyimino)-1-[(2′-methyl[1,1′-biphenyl]-4-yl)carbonyl]-2-pyrrolidinecarboxylate], the results for the IC50 in assay [1] and in assay [2] were 23 nM and 12 nM, respectively.
